Data from ChEMBL document CHEMBL1201862, “PubChem BioAssay data set” (2004).
Values joined by “and” are separate entries in the source; they are usually repeats but may differ in a detail not shown here. Identical values can stand only once. Active and inactive are the calls of the source.

Key:
[1] = target: T1, Heat shock 70 kDa protein 1A (Homo sapiens, UniProt P0DMV8); experiment: small molecules displacing fluorescent ligand from Hsp70 – biochemical, fluorescence polarization, primary screen (AID 583)
[2] = target: T1, Heat shock 70 kDa protein 1A; experiment: small-molecule inhibition of Hsp70 – biochemical, TR-FRET (AID 786)
[3] = Luminescence Cell-Based Dose Retest to Confirm Inhibitors of Cancer Stem Cells. [Related pubchem assays (depositor defined):AID2717, AID2721]; type: functional; conditions: Homo sapiens
[4] = target: Serine/threonine-protein phosphatase PP1-alpha catalytic subunit (Homo sapiens, UniProt P62136); experiment: inhibition of protein phosphatase 1 activity – biochemical, fluorescence, dose response (AID 2403);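 note: phosphatase turnover of OMFP into fluorescent 3-O-methylfluorescein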
[5] = target: Serine/threonine-protein phosphatase (Homo sapiens, UniProt Q9BPW0); experiment: Counterscreen for inhibitors of PP1: fluorescence-based biochemical high throughput dose response assay to identify inhibitors of Protein Phosphatase 5 (PP5). [Related pubchem assays: 2034 (Summary (PP5 inhibitors)), 1987 (PP5 inhibitors in singlate), 2235 (PP1 inhibitors in singlate)]
Bcl-2-like protein 10 = Bcl-2-like protein 10 (Homo sapiens, UniProt Q9HD36); experiment: Concentration-response of Bcl-B inhibitors by biochemical FP with TR3 (AID 1243); type: functional
[6] = Trypanosoma cruzi growth suppression in host cells – NIH3T3 host cells, beta-gal luminescence, confirmation (AID 2044); type: functional, cell-based;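 note: intracellular parasites grown in NIH/3T3 mouse fibroblasts as host cells; luminescent beta-galactosidase reporter signal from transgenic T. cruzi replicating inside host cells; inhibitors lower the luminescence signal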
[7] = alpha-synuclein stem-loop luciferase translation blockers – H4 neuroglioma cells, luminescence, confirmation (AID 1988); type: functional, cell-based
[8] = Luminescence Cell-Based Dose Response HTS to Identify Inhibitors of 5'UTR Stem-Loop Driven Prion Protein mRNA Translation in H4 Neuroglioblastoma Cells. [Related pubchem assays: 1827 (Project Summary), 1813 (Primary HTS)]; type: functional
[9] = target: T2, Neuropeptide Y receptor type 1 (Homo sapiens, UniProt P25929); type: functional;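 for IC50: HEK293 cells with a CNG channel challenged with NPY then isoproterenol; potency as antagonist that reverses NPY suppression of cAMP signal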
T2 sequence (P25929 whole entry): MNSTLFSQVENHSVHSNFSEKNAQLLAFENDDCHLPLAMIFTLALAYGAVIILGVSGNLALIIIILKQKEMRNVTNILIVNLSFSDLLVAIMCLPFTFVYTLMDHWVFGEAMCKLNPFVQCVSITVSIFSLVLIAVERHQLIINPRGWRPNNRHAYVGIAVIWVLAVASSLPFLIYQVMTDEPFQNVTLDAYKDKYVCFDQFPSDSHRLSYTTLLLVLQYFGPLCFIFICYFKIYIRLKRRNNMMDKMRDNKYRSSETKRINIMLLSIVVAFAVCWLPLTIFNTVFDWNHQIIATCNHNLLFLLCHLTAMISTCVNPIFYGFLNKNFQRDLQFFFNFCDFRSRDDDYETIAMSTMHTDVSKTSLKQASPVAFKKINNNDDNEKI

[10] = NIH3T3 cell viability loss – ATP luminescence, mouse fibroblasts, counter-screen, dose response (AID 2010); type: functional, cell-based;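 note: cells exposed to compound for about 90 hours before reading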
[11] = luciferase reporter signal suppression in cells – H4 neuroglioma cells, luminescence, dose response (AID 1990); type: functional, cell-based
[12] = target: T3, Neuropeptide Y receptor type 2 (Homo sapiens, UniProt P49146); type: functional, cell-based;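 for IC50: HEK293 cells expressing the receptor and a CNG channel; stimulus was NPY near EC95 followed by isoproterenol to raise cAMP; antagonist potency measured as restoring cAMP signal that NPY suppresses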
T3 sequence (P49146 whole entry): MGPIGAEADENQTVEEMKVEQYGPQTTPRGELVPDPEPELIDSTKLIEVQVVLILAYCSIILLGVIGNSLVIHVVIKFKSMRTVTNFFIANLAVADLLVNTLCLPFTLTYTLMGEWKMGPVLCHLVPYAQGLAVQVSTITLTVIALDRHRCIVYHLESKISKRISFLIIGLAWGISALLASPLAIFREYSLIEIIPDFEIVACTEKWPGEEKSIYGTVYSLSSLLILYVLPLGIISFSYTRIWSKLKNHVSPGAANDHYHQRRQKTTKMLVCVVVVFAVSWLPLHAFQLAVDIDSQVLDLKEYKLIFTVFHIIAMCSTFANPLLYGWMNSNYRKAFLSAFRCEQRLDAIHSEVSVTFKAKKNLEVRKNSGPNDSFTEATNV

cells = type: functional, cell-based
BJ [13] = experiment: cells; type: functional, cell-based; conditions: Homo sapiens
[14] = HEK-293T viability loss after treatment – luminescence, T-cell screen hits, cytotoxicity control for TCR NF-kB inhibitor project, dose response (AID 489026); type: functional, cell-based;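 note: cells exposed to compound about 14 hours before the viability readout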
[15] = viability of uninfected HEp-2 cells – cell-based, HTS, cytotoxicity control for RSV inhibitor project, dose response (AID 2410); type: functional; conditions: human respiratory syncytial virus
[16] = luciferase reporter signal reduction – luminescence, H4-C neuroglioblastoma cells, dose response (AID 2458); type: functional, cell-based;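 note: H4 neuroglioblastoma cells stably carrying a luciferase reporter gene fusion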
BJ [17] = experiment: BJ-TERT fibroblast viability loss – cell-based, RAS-independent, luminescence, dose response (AID 1933); type: functional; conditions: Homo sapiens
BJ [18] = experiment: BJ-TERT-LT-ST fibroblast viability loss – cell-based, RAS-independent, luminescence, dose response (AID 1935); type: functional; conditions: Homo sapiens;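 note: BJ fibroblasts immortalized with TERT plus LT and ST oncogenes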
[19] = DRD fibroblast viability loss – cell-based, non-viral oncogenic, luminescence, dose response (AID 1934); type: functional; conditions: Homo sapiens
[20] = alpha-synuclein stem-loop translation blockers – luminescence, H4 neuroglioblastoma cells, dose confirmation, confirmation (AID 2454); type: functional, cell-based;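 note: H4 neuroglioblastoma cells carrying an alpha-synuclein 5'UTR luciferase reporter; potency for inhibition of the luciferase signal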
HT-1080 = experiment: HT1080 cell viability loss – fluorescence readout (AID 620); type: functional, cell-based; conditions: Homo sapiens
[21] = target: Luciferin 4-monooxygenase (Photinus pyralis, UniProt P08659); experiment: Counter Screen for Luciferase-based Assay Positives. [Related pubchem assays: 620, 618, 411 ]
[22] = target: T4, Heat shock factor protein 1 (Mus musculus, UniProt P38532); experiment: enhancement of HSF1-driven luciferase signal – cell-based, NIH3T3, luminescence, dose retest, confirmation (AID 435004); type: functional;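 note: stress induced by proteasome inhibitor MG132 added 30 min after compound; luciferase reporter driven by HSF1 response element in NIH3T3 cells; actives raise luminescence as potentiators of the MG132 stress response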
T4 sequence (P38532 whole entry): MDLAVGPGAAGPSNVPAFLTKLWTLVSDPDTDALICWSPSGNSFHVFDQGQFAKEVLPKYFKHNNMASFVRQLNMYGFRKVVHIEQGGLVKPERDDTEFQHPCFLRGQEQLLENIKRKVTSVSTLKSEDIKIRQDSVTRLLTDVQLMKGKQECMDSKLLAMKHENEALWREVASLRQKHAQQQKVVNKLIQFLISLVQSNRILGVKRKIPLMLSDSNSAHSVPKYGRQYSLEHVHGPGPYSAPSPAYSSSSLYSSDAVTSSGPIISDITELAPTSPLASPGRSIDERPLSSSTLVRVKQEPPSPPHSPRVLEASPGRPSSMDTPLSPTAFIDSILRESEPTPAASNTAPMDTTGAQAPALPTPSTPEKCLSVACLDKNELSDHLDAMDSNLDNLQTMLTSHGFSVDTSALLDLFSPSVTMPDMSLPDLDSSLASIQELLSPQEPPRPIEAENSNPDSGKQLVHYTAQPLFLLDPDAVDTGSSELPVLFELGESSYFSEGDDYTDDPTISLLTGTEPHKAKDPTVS

[23] = target: T3, Neuropeptide Y receptor type 2; experiment: Fluorescence-based cell-based high-throughput dose response assay for agonists of NPY-Y2. [Related pubchem assays: 1703 (Screening assay (CNGC inhibitors).), 1359 (Screening assay (NPY-Y2 potentiators or agonists).), 1304 (Screening assay (NPY-Y1 potentiators or agonists).), 1710 (Screening assay (NPY-Y2 agonists).), 1791 (Summary AID.)]; type: functional
HEK293 [24] = experiment: Fluorescence-based counterscreen for potentiators or agonists of NPY-Y2: cell-based high-throughput dose response assay to identify inhibitors of cyclic nucleotide gated ion channel (CNGC) activity. In this assay, the parental HEK293 cell line transfected with a cyclic-nucleotide gated ion channel (CNGC)-based cAMP sensor is used to measure inhibition of isoproterenol-induced CNGC activity by test compound.; type: functional; conditions: Homo sapiens
[25] = loss of viability in HepG2 cells – cell-based, CellTiter-Glo, cherry-picked, cytotoxicity control for Shn3 inhibitor project, dose response (AID 624134); type: functional
[26] = target: T3, Neuropeptide Y receptor type 2; experiment: IC50 for human NPY-Y2 blockade – cell-based, counter-screen for NPY-Y1 antagonist project, dose response (AID 1278); type: functional
HEK293 [27] = experiment: cells; conditions: Homo sapiens
HEK293 [28] = experiment: cells; conditions: Homo sapiens; remark: listed apart in the source
[29] = non-specific 3'UTR reporter inhibition in Clone20-Shn3RL – cell-based, Renilla luciferase, cherry-picked, counter-screen for Shn3 inhibitor project, dose response (AID 624133); type: functional
[30] = target: T2, Neuropeptide Y receptor type 1; experiment: IC50 of human NPY-Y1 blockers – cell-based, dose response (AID 1277); type: functional
[31] = reduction of Shn3 3'UTR-driven luciferase in osteoblasts – cell-based, Clone20 osteoblasts, firefly luciferase, cherry-picked, dose response (AID 624132); type: functional;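 note: firefly luciferase luminescence from reporter carrying the Shn3 3'UTR in osteoblasts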
[32] = target: E3 ubiquitin-protein ligase Mdm2 (Homo sapiens, UniProt Q00987); experiment: MDM2-luc reporter signal enhancers, multi-concentration potency testing, MDM2 ubiquitin-protein ligase inhibitor program, whole-cell format, luminescence detection, 384-well microplate (AID 1394); type: functional;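 note: MDM2 E3 inhibitors raise luminescence so EC50 is for signal enhancement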
[33] = target: T2, Neuropeptide Y receptor type 1; experiment: Fluorescence-based counterscreen for agonists of NPY-Y2: cell-based high-throughput dose response assay for agonists of NPY-Y1.; type: functional
BJ [34] = experiment: growth inhibition of engineered Ras-driven BJ cells – cell-based, alamar blue fluorescence, cherrypicked samples, dose response (AID 2631); type: functional; conditions: Homo sapiens;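 note: confirmatory dose-response assay in RAS-dependent BJ fibroblasts engineered with TERT, LT and ST, with cytotoxicity read by fluorescence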
[35] = Luminescence-based counterscreen assay for KLF5 inhibitors: dose response cell-based high throughput screening assay to identify cytotoxic compounds using the IEC-6 intestinal epithelial cell line. [Related pubchem assays: 1700 (Primary screen.), 1834 (Confirmation screen.), 1858 (Summary AID.), 1905 (Counterscreen.)]; type: functional
[36] = target: T5, Voltage-gated N-type calcium channel alpha-1B subunit/Amyloid beta A4 precursor protein-binding family A member 1 (Homo sapiens, UniProt Q00975+Q02410); type: protein assay
[37] = target: G2/mitotic-specific cyclin-B1 (Homo sapiens, UniProt P14635); experiment: Counterscreen assay for inhibitors of Wee1 degradation: dose response cell-based assay to identify inhibitors of cyclin B degradation. [Related pubchem assays: 1410, 1321 ]; type: functional
Wee1-like protein kinase = Wee1-like protein kinase (Homo sapiens, UniProt P30291); experiment: Dose Response Cell-based Assay for Inhibitors of Wee1 Degradation. [Related pubchem assays: 1410, 1321 ]; type: functional
[38] = target: T5, Voltage-gated N-type calcium channel alpha-1B subunit/Amyloid beta A4 precursor protein-binding family A member 1; type: protein assay; remark: listed apart in the source
Cytochrome P450 3A4 = Cytochrome P450 3A4 (Homo sapiens, UniProt P08684); conditions: Potency;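 note: confirmatory qHTS run detecting inhibitors and substrates of CYP3A4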
Cytochrome P450 2D6 = Cytochrome P450 2D6 (Homo sapiens, UniProt P10635); experiment: qHTS Assay for Inhibitors and Substrates of Cytochrome P450 2D6. [Related pubchem assays: 410 ]; type: ADME; conditions: read-out: Potency

Chain of Cytochrome P450 3A4 (P08684 whole entry): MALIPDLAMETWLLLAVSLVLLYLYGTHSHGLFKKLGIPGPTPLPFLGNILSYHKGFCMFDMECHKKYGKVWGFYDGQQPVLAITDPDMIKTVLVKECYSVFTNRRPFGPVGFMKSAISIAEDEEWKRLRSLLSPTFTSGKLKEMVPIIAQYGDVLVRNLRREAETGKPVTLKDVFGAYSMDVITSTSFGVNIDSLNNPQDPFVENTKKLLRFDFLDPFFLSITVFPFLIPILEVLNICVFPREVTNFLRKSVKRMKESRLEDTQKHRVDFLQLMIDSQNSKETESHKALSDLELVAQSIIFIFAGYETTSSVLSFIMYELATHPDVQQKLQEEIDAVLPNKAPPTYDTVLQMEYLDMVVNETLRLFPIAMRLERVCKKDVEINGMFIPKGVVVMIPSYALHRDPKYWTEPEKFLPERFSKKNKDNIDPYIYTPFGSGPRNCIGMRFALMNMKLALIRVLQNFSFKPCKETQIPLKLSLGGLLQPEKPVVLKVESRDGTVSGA
T1 sequence (P0DMV8 whole entry): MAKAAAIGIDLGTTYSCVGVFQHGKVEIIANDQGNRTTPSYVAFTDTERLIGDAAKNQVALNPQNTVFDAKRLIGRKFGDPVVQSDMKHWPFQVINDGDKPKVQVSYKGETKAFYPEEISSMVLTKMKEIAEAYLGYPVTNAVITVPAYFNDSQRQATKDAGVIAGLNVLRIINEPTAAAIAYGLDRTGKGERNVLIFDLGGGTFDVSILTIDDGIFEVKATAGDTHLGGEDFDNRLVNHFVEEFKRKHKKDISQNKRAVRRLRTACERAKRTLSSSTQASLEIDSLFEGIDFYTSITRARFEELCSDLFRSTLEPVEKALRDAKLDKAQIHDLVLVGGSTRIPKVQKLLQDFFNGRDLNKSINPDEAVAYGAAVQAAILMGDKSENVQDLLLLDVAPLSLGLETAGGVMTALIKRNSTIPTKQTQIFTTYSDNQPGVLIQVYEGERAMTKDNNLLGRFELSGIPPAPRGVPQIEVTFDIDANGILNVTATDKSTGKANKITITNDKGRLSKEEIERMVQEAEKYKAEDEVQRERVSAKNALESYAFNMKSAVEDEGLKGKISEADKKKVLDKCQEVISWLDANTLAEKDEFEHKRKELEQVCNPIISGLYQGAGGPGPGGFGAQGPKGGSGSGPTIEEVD
T5 sequence (Q00975 whole entry): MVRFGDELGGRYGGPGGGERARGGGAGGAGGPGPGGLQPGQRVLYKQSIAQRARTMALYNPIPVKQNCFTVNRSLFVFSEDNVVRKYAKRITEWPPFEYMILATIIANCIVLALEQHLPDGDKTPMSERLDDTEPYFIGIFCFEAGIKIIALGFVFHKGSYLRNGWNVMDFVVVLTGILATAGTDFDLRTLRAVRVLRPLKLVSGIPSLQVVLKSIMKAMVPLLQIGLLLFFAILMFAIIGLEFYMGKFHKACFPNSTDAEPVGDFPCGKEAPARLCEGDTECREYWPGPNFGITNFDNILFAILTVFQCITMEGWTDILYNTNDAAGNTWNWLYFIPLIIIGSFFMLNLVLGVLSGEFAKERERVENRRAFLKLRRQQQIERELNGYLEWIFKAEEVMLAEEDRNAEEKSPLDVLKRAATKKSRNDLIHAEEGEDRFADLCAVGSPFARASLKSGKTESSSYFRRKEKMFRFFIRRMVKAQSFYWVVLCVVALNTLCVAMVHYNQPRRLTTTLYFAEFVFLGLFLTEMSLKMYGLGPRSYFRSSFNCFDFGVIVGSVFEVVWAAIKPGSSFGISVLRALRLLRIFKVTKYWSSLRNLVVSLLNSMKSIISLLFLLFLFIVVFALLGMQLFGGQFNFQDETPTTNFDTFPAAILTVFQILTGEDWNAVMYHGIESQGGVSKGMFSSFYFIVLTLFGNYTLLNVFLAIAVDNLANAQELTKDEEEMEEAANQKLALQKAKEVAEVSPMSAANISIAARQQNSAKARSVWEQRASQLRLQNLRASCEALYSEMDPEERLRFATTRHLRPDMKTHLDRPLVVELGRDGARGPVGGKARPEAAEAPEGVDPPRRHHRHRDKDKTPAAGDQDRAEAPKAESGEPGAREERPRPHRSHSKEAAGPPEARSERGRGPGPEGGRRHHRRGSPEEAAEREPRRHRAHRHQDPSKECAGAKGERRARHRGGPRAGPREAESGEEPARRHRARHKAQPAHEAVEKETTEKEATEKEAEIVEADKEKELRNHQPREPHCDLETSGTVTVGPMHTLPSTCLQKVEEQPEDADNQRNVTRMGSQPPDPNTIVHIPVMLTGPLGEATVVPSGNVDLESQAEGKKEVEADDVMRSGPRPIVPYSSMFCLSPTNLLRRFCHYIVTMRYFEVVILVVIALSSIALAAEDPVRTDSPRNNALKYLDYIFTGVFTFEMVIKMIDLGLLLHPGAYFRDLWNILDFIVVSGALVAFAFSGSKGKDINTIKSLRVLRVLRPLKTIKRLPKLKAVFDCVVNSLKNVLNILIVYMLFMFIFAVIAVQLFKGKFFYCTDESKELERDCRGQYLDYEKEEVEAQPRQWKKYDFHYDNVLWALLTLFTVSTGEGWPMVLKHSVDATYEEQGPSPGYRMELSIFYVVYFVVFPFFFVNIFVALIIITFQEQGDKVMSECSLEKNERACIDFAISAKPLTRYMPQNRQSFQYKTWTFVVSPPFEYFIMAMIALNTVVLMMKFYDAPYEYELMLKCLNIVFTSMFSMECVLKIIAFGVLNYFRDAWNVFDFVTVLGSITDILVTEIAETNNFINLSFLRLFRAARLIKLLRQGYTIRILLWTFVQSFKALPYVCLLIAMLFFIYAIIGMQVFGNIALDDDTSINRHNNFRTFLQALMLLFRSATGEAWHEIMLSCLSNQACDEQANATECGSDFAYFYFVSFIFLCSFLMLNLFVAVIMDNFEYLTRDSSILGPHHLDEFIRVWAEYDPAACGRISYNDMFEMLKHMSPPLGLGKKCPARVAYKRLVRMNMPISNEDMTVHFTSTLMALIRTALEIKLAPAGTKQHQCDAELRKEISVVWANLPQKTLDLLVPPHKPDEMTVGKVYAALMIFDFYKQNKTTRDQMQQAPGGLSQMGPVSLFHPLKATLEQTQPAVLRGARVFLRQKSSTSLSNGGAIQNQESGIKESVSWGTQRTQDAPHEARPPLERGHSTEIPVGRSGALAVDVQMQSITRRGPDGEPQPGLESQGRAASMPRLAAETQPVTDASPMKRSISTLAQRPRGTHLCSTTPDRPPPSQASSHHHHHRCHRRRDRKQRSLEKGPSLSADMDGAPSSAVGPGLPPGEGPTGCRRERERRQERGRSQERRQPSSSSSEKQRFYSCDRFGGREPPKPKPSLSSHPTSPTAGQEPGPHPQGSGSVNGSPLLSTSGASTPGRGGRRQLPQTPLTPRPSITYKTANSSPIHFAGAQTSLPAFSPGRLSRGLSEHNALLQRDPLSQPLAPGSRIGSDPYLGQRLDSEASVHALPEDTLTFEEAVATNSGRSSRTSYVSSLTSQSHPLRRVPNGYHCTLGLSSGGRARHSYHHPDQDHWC
T5 sequence (Q02410 whole entry): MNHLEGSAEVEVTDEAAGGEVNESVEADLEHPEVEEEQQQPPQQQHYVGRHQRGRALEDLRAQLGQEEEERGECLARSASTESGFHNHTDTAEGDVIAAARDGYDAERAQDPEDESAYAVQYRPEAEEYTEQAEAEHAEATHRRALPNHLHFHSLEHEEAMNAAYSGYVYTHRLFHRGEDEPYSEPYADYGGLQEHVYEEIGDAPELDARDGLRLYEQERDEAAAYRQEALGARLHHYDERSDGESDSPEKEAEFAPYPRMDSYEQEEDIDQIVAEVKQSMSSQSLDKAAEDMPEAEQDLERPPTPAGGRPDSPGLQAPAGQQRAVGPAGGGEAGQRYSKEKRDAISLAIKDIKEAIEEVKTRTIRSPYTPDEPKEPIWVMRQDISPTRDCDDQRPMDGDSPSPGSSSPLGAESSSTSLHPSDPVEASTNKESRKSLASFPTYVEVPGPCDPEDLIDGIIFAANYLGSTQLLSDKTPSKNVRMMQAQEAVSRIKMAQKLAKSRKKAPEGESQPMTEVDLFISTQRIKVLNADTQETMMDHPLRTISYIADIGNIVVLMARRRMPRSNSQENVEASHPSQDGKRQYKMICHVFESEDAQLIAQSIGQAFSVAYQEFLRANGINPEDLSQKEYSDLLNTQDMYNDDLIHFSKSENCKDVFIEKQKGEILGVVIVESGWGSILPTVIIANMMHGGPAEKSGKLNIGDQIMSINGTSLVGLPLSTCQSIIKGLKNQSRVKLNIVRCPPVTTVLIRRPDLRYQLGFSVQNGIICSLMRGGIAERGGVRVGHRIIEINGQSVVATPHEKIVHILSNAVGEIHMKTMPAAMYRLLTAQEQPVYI
Chain of Bcl-2-like protein 10 (Q9HD36 whole entry): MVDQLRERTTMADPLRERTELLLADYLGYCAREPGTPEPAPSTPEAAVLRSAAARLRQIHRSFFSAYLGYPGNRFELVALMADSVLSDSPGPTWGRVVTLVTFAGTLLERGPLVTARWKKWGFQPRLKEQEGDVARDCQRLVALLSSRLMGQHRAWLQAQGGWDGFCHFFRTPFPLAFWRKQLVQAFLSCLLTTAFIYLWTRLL
Chain of G2/mitotic-specific cyclin-B1 (P14635 whole entry): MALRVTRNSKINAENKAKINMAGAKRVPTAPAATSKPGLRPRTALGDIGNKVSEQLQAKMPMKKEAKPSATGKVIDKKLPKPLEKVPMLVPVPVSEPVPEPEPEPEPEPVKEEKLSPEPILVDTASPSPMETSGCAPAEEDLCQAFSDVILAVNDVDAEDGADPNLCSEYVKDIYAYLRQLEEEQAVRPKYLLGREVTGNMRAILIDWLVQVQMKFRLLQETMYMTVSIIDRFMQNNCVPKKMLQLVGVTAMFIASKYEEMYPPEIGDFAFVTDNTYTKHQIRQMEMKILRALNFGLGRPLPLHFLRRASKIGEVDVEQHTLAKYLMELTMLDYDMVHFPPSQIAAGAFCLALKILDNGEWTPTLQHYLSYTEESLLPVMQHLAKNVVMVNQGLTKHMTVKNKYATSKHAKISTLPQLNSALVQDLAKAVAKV

CCCc1cc(SCC(=O)Nc2c(C)n(C)n(-c3ccccc3)c2=O)n2c(nc3ccccc32)c1C#N
IC50 [1]: > 100 µM (not active)
IC50 [2]: > 100 µM (not active)
AC50 [3]: > 195 µM (inactive)

O=C(O)c1cc(-c2ccc(Cl)cc2)n(-c2cccc(Cl)c2)n1
IC50 [4]: 8.1 µM (active)
IC50 [5]: > 67 µM (not active)

C=CCN1C(=O)/C(=C\c2cccn2-c2cccc([N+](=O)[O-])c2)C(=O)NC1=S
EC50 (Bcl-2-like protein 10): 5.36 µM (active)

CCOc1ccc(-n2cc(C(=O)Nc3cccc(Cl)c3)c3cc(OC)c(OC)cc3c2=O)cc1
EC50 [6]: 3.7 µM (active)
EC50 [7]: > 120 µM (not active)
EC50 [8]: > 120 µM (not active)
IC50 [9]: > 35 µM (not active)
EC50 [10]: > 60 µM (not active)
EC50 [11]: 21.5 µM (active)
IC50 [12]: > 35 µM (not active)

CC(=O)c1sc2c(c1OC(=O)c1ccc(Cl)cc1Cl)c(=O)n(-c1ccccc1)c(=S)n2-c1ccccc1
EC50 [7]: < 0.1 µM (active)
EC50 [8]: < 0.1 µM (active)
EC50 (cells): 0.444 µM (active)
EC50 (BJ [13]): 104 µM (active)
IC50 [14]: > 80 µM (inactive)
CC50 [15]: 1.59 µM (active)
EC50 [16]: 0.578 µM (active)
EC50 (BJ [17]): 0.201 µM (active)
EC50 (BJ [18]): 6.47 µM (inconclusive)
EC50 [19]: 0.36 µM (inconclusive)
EC50 [20]: 0.716 µM (active)
EC50 [11]: 0.134 µM (active)

O=c1/c(=C/c2ccccn2)sc2nc3ccccc3n12
EC50 (HT-1080): > 50 µM (not active)
EC50 [21]: < 0.2 µM (active)

C/C1=C\[C@@H](C)C/C=C/[C@H]2[C@@H]3O[C@]3(C)[C@@H](C)[C@H]3[C@H](Cc4c[nH]c5ccccc45)NC(=O)[C@]32C(=O)/C=C/C(=O)[C@@H]1O
EC50 [22]: 6.24 µM (inconclusive)
EC50 [23]: > 35.4 µM (not active)
EC50 (HEK293 [24]): > 35.4 µM (not active)
AC50 [25]: 24.2 µM (active)
IC50 [26]: 4.76 µM (active)
EC50 (HEK293 [27]): > 59.6 µM (inactive)
EC50 (BJ [13]): 6.74 µM (inconclusive)
EC50 (BJ [17]): 3.85 µM (inconclusive)
EC50 (BJ [18]): 10.7 µM (inconclusive)
EC50 (HEK293 [28]): > 59.6 µM (inactive)
EC50 [19]: 5.67 µM (active)
AC50 [29]: 5.25 µM (active)
IC50 [30]: 10.6 µM (not active)
AC50 [31]: 6.44 µM (active)
EC50 [32]: 12 µM (not active)
EC50 [33]: > 35.4 µM (not active)

Cc1nc2ccccn2c1-c1csc(Nc2cccc(O)c2)n1
EC50 (BJ [34]): 0.205 µM (active)
IC50 [35]: > 13.3 µM (not active)
IC50 [36]: 10 µM (active)
EC50 (BJ [13]): 82.4 µM (inconclusive)
EC50 (BJ [17]): 7.42 µM (active)
EC50 (BJ [18]): 1.55 µM (inconclusive)
EC50 [19]: 1.96 µM (active)
EC50 [37]: > 49.7 µM (not active)
EC50 (Wee1-like protein kinase): > 49.7 µM (not active)
IC50 [38]: > 50 µM (inactive)

Cc1cccc(C#Cc2ccccc2)n1
AC50 (Cytochrome P450 3A4): 20 µM (inconclusive) and 1.26 µM (inconclusive)
AC50 (Cytochrome P450 2D6): 39.8 µM (inconclusive)
